Assay results published in the supplement of paper PMC13380429.

Key:
Settings in all cases: 72 h
U2OS [1] = test: drug sensitivity score (DSS) for viability; higher = more toxic; extreme values may be limits of the assay
Caco-2 [2] = test: as above
Calu-3 [3] = test: as above
HepG2 [4] = test: as above
Vero E6 [5] = test: as above
U2OS [6] = test: cell viability relative to DMSO; higher = less toxic
Caco-2 [7] = test: as above
Calu-3 [8] = test: as above
HepG2 [9] = test: as above
Vero E6 [10] = test: as above
U2OS [11] = test: relative viability EC50 (midpoint between 100% and the lowest measured viability); higher = less toxic
Caco-2 [12] = test: as above
Calu-3 [13] = test: as above
HepG2 [14] = test: as above
Vero E6 [15] = test: as above

Compound	drug sensitivity score (U2OS [1])	drug sensitivity score (Caco-2 [2])	drug sensitivity score (Calu-3 [3])	drug sensitivity score (HepG2 [4])	drug sensitivity score (Vero E6 [5])	cell viability (U2OS [6]; 1 nM)	cell viability (U2OS [6]; 10 nM)	cell viability (U2OS [6]; 100 nM)	cell viability (U2OS [6]; 1000 nM)	cell viability (U2OS [6]; 10000 nM)	cell viability (Caco-2 [7]; 1 nM)	cell viability (Caco-2 [7]; 10 nM)	cell viability (Caco-2 [7]; 100 nM)	cell viability (Caco-2 [7]; 1000 nM)	cell viability (Caco-2 [7]; 10000 nM)	cell viability (Calu-3 [8]; 1 nM)	cell viability (Calu-3 [8]; 10 nM)	cell viability (Calu-3 [8]; 100 nM)	cell viability (Calu-3 [8]; 1000 nM)	cell viability (Calu-3 [8]; 10000 nM)	cell viability (HepG2 [9]; 1 nM)	cell viability (HepG2 [9]; 10 nM)	cell viability (HepG2 [9]; 100 nM)	cell viability (HepG2 [9]; 1000 nM)	cell viability (HepG2 [9]; 10000 nM)	cell viability (Vero E6 [10]; 1 nM)	cell viability (Vero E6 [10]; 10 nM)	cell viability (Vero E6 [10]; 100 nM)	cell viability (Vero E6 [10]; 1000 nM)	cell viability (Vero E6 [10]; 10000 nM)	relative viability EC50 (U2OS [11])	relative viability EC50 (Caco-2 [12])	relative viability EC50 (Calu-3 [13])	relative viability EC50 (HepG2 [14])	relative viability EC50 (Vero E6 [15])
Cc1ncc([N+](=O)[O-])n1CC(O)CCl (stereo not given) [ornidazole]	0	0	0	0	0	91.3%	97.1%	91.8%	95.8%	102%	103%	101%	99.1%	102%	98.4%	99.9%	95.1%	93.8%	96.1%	108%	101%	98%	91.6%	107%	99.7%	101%	96.6%	97.4%	96%	104%	> 10 µM	> 10 µM	> 10 µM	> 10 µM	> 10 µM
O=C1CCCN1CC#CCN1CCCC1 [oxotremorine-sesquifumarate]	0	0	0	0.9	0	97%	94.3%	95.3%	100%	102%	110%	99.1%	94.7%	103%	98.3%	96%	96%	91.9%	105%	101%	101%	96%	104%	94.9%	82.6%	105%	105%	104%	93.8%	92.8%	> 10 µM	> 10 µM	> 10 µM	> 10 µM	> 10 µM
CCCCOc1cc(C(=O)OCCN(CC)CC)ccc1N [oxybuprocaine]	0	0	0	0	0	104%	96.7%	105%	101%	101%	106%	96.9%	98.7%	100%	100%	96%	106%	110%	107%	98.7%	105%	117%	95.7%	97.8%	90%	103%	105%	101%	102%	97.9%	> 10 µM	> 10 µM	> 10 µM	> 10 µM	> 10 µM
Oc1nc(O)c2cn[nH]c2n1 [oxypurinol]	0	0	0	0	0	101%	102%	93.6%	99.5%	99.8%	107%	100%	98%	97.7%	97.1%	95.6%	108%	97.2%	107%	94.6%	108%	86.2%	104%	101%	96%	96.1%	103%	98.5%	101%	100%	> 10 µM	> 10 µM	> 10 µM	> 10 µM	> 10 µM
COc1ccnc(C[S+]([O-])c2nc3cc(OC(F)F)ccc3[nH]2)c1OC (stereo not given) [pantoprazole]	0	0	0	0	0	109%	105%	102%	101%	99.3%	99.5%	104%	98.7%	103%	89.4%	99%	99.1%	98.4%	95.9%	94.8%	106%	107%	111%	99.2%	117%	95.4%	97.1%	91.7%	91%	99.2%	> 10 µM	> 10 µM	> 10 µM	> 10 µM	> 10 µM
CC(COc1ccccc1)N(CCCl)Cc1ccccc1 (stereo not given) [phenoxybenzamine]	0	0.5	0	0.6	0	96.3%	102%	93.4%	114%	93.6%	86.6%	92.7%	102%	95.9%	86%	96.5%	109%	106%	101%	95.8%	101%	106%	88.7%	89.4%	96.5%	102%	98.3%	101%	97.9%	94.3%	> 10 µM	> 10 µM	> 10 µM	> 10 µM	> 10 µM
CC(C)(N)Cc1ccccc1 [phentermine]	0	0	0	0	0	97.4%	96%	100%	95.5%	103%	108%	108%	99.8%	96.3%	95.8%	93.3%	81%	97.4%	104%	98.4%	98.5%	98.2%	109%	92.3%	94.8%	102%	92.1%	102%	100%	96.3%	> 10 µM	> 10 µM	> 10 µM	> 10 µM	> 10 µM
CCCCN1CCC(CNC(=O)c2c3n(c4ccccc24)CCCO3)CC1 [piboserod]	0	0	0.2	0	0	97.7%	98.7%	97.7%	101%	91.9%	96%	99.8%	96.9%	99%	93.4%	108%	91.9%	102%	104%	83%	94.2%	106%	106%	98.5%	95.5%	93.1%	92.7%	95%	91.4%	95.9%	> 10 µM	> 10 µM	> 10 µM	> 10 µM	> 10 µM
O=C(NNc1ccccc1)c1ccncc1 [plurisin-1]	0	0	0	0.4	0	103%	96.3%	101%	99.9%	99.6%	106%	106%	105%	91.6%	101%	97.9%	96.6%	93.2%	103%	106%	110%	109%	104%	114%	77.8%	102%	108%	106%	96.7%	95.4%	> 10 µM	> 10 µM	> 10 µM	> 10 µM	> 10 µM
CCCn1cnc2c1c(=O)n(CCCCC(C)=O)c(=O)n2C [propentofylline]	0	0	0	0	0	98.4%	98.6%	101%	101%	101%	91.1%	97.5%	91.5%	102%	106%	107%	90.8%	99%	94.8%	108%	98.6%	106%	103%	96.4%	104%	92.4%	92.4%	92.1%	93.3%	106%	> 10 µM	> 10 µM	> 10 µM	> 10 µM	> 10 µM
CCCOc1ccc(C(=O)OCCN(CC)CC)cc1N [proxymetacaine]	0	0	0	0	0	99.9%	97%	101%	97.2%	102%	92.8%	87%	102%	90%	104%	102%	96.8%	94.2%	101%	102%	88.5%	102%	99.1%	113%	97.9%	97.2%	95.9%	91.9%	97.1%	107%	> 10 µM	> 10 µM	> 10 µM	> 10 µM	> 10 µM
CC(=O)NC[C@H]1CN(c2ccc(-c3ccc(CNCc4cnn[nH]4)cc3)c(F)c2)C(=O)O1 [radezolid]	0	0	0	8.1	0	98.9%	98.8%	99.7%	96.4%	94.2%	96.8%	106%	104%	118%	87.8%	104%	97.6%	97.4%	90.6%	101%	105%	106%	108%	54.4%	49.2%	100%	96.2%	99.3%	93.8%	93.6%	> 10 µM	> 10 µM	> 10 µM	0.472 µM	> 10 µM
Cc1cc2nc3c(=O)[nH]c(=O)nc-3n(C[C@H](O)[C@H](O)[C@H](O)CO)c2cc1C [riboflavin]	0	0	0	0	0	97.4%	101%	96.2%	102%	94.6%	99%	95.3%	92.7%	107%	96.8%	102%	104%	86%	107%	92.2%	95.9%	85%	93.7%	93.4%	93%	96.6%	91.9%	96.3%	94.2%	95.4%	> 10 µM	> 10 µM	> 10 µM	> 10 µM	> 10 µM
O=c1c2ccccc2nc2n1CCc1c-2[nH]c2ccccc12 [rutaecarpine]	0	0	0	1.7	0	96.5%	101%	97%	106%	99.8%	102%	100%	92.9%	97.1%	91.6%	87%	102%	98.8%	111%	87.9%	104%	105%	98.7%	93.7%	76.4%	103%	104%	98.3%	100%	98.8%	> 10 µM	> 10 µM	> 10 µM	> 10 µM	> 10 µM
